Assays:
[1] = molecular target: T1, Son of sevenless homolog 1 (Homo sapiens, UniProt Q07889); assay: Inhibition of SOS1 in human Calu-1 cells assessed as reduction in pERK level incubated for 24 hrs by HTRF analysis; format: cell-based
T1 sequence (Q07889 whole entry): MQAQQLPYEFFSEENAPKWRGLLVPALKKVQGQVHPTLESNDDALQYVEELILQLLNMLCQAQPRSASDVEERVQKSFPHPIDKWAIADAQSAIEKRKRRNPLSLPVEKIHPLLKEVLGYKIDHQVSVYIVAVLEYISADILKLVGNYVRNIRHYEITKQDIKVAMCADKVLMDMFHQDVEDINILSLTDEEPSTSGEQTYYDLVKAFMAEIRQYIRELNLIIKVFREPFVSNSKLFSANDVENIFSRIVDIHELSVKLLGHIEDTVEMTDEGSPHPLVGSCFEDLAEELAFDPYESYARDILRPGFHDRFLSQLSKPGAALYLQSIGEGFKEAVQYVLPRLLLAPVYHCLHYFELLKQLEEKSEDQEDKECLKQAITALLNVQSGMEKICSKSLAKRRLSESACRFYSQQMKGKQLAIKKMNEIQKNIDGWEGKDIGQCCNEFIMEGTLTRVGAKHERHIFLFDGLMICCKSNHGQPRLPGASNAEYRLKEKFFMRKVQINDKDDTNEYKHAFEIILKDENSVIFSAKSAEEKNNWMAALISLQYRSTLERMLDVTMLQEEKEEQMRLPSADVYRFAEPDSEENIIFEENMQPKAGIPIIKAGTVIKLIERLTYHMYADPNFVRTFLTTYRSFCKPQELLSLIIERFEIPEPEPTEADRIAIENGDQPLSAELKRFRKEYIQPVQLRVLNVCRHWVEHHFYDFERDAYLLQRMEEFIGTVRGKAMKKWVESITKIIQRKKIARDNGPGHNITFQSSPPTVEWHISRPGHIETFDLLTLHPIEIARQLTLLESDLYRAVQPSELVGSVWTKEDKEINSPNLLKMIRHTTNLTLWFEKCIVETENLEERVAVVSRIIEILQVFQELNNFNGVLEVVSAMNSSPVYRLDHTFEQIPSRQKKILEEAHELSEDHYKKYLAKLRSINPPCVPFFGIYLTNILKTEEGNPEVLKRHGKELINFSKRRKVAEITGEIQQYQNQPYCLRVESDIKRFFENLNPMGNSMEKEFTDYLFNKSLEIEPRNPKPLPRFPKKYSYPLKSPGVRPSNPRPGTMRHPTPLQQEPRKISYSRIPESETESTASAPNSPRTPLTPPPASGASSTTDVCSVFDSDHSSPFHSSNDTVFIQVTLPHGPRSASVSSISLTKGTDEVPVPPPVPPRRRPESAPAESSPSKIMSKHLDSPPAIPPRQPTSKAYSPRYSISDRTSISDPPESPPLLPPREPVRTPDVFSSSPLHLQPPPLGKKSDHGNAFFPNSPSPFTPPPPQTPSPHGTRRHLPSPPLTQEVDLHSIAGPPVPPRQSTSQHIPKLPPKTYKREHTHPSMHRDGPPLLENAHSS

MIA PaCa-2 [2] = assay: Antiproliferative activity against human MIA PaCa-2 cells assessed as reduction in cell growth measured after 48 hrs by MTT assay; format: functional, cell-based; settings: MIA PaCa-2, 48 h
MIA PaCa-2 [3] = assay: Antitumor activity against human MIA PaCa-2 cells xenografted in mouse model assessed as tumor growth inhibition at 50 mg/kg, po relative to control; format: functional; settings: read-out: TGI
[4] = Half life in mouse; format: ADME, organism-based; settings: in vivo
[5] = Intrinsic clearance in mouse liver microsomes; format: ADME, Microsome; settings: read-out: CLH
[6] = molecular target: T1, Son of sevenless homolog 1; assay: Binding affinity to SOS1 (unknown origin) assessed as inhibition constant by HTRF method
MIA PaCa-2 [7] = assay: Antitumor activity against human MIA PaCa-2 cells xenografted in CD-1 mouse assessed as in tumor growth inhibition at 20 mg/kg, po BID for 22 days relative to control; format: functional; settings: MIA PaCa-2, 528 h, time 22 day, read-out: TGI
MIA PaCa-2 [8] = assay: Antitumor activity against human MIA PaCa-2 cells xenografted in CD-1 mouse assessed as tumor inhibition at 20 mg/kg, po BID for 22 days relative to control; format: functional; settings: MIA PaCa-2, 528 h, time 22 day, read-out: TGI
[9] = molecular target: T1, Son of sevenless homolog 1; assay: Inhibition of SOS1 (unknown origin) by HTRF assay
[10] = molecular target: Epidermal growth factor receptor (Homo sapiens, UniProt P00533); assay: Inhibition of EGFR (unknown origin)
Chain of Epidermal growth factor receptor (P00533 whole entry): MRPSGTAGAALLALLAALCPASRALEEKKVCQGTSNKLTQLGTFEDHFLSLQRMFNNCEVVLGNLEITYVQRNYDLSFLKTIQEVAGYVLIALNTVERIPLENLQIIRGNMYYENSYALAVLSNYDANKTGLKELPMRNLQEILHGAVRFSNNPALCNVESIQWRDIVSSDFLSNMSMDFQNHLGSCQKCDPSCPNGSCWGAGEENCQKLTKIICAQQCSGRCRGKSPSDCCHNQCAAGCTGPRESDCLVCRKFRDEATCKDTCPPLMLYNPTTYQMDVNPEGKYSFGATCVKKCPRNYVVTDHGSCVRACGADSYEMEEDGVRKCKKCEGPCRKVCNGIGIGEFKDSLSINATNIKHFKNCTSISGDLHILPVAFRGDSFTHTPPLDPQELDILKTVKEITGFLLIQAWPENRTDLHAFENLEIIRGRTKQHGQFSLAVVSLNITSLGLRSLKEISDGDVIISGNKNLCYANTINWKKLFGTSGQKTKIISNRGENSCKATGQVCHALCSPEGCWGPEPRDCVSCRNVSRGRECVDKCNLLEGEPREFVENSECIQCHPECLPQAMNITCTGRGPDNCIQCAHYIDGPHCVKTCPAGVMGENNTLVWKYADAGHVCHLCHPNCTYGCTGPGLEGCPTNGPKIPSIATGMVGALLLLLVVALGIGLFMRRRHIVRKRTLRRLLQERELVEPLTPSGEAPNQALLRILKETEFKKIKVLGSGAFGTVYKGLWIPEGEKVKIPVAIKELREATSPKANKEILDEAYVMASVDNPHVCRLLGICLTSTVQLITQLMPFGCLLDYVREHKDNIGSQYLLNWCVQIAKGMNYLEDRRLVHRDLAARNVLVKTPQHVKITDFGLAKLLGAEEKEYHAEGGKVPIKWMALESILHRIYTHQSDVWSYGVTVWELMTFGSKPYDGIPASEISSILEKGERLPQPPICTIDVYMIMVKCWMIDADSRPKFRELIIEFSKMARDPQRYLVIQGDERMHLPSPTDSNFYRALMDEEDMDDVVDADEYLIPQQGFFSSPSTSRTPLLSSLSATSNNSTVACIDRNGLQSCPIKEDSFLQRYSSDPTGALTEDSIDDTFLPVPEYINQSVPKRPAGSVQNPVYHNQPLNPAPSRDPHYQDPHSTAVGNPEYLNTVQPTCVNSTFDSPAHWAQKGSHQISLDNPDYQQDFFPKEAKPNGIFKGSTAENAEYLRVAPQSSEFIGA

MIA PaCa-2 [11] = assay: Antiproliferative activity against human MIA PaCa-2 cells harboring KRAS G12C mutant assessed as reduction in cell viability incubated for 72 hrs by MTT assay; format: functional, cell-based; settings: MIA PaCa-2, 72 h
[12] = Clearance in CD-1 mouse at 5 mg/kg, ip measured after 24 hrs by LC-MS/MS analysis; format: ADME, organism-based; settings: in vivo
[13] = Volume of distribution at steady state in CD-1 mouse at 5 mg/kg, ip measured after 24 hrs by LC-MS/MS analysis; format: ADME, organism-based; settings: in vivo
[14] = Oral bioavailability in CD-1 mouse at 20 mg/kg measured upto 24 hrs by LC/MS/MS analysis; format: ADME, organism-based; settings: in vivo
[15] = Half life in CD-1 mouse at 20 mg/kg, po measured after 24 hrs by LC-MS/MS analysis; format: ADME, organism-based; settings: in vivo
MIA PaCa-2 [16] = assay: Antitumor activity against human MIA PaCa-2 cells xenografted in CD-1 mouse assessed as tumor growth inhibition at 20 mg/kg BID for 22 days relative to control; format: functional; settings: MIA PaCa-2, 528 h, time 22 day, read-out: TGI
K562 = assay: cells; settings: Homo sapiens, K562, 72 h
[17] = molecular target: von Hippel-Lindau disease tumor suppressor/Son of sevenless homolog 1 (Homo sapiens, UniProt Q07889+P40337); assay: PROTAC activity at VHL/SOS1 in human NCI-H358 cells assessed as induction of SOS1 protein degradation incubated for 24 hrs by Immunoblot analysis; format: cell-based
Chain of von Hippel-Lindau disease tumor suppressor/Son of sevenless homolog 1 (Homo sapiens, UniProt Q07889+P40337) (P40337 whole entry, one chain of several): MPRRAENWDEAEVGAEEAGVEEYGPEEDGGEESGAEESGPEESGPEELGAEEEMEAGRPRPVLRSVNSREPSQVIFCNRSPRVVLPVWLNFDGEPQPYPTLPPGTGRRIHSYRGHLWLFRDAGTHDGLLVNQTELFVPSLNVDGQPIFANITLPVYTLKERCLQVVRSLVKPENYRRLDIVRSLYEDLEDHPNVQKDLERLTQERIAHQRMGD

[18] = molecular target: von Hippel-Lindau disease tumor suppressor/Son of sevenless homolog 1 (Homo sapiens, UniProt Q07889+P40337, G12S); assay: PROTAC activity at VHL/SOS1 in human NCI-H358 cells harboring KRAS G12S mutant assessed as induction of SOS1 degradation incubated for 24 hrs by immunoblotting analysis; format: cell-based
Chain of von Hippel-Lindau disease tumor suppressor/Son of sevenless homolog 1 (Homo sapiens, UniProt Q07889+P40337, G12S) (P40337 whole entry, looked up, stated change not applied, one chain of several): as the sequence (P40337 whole entry, one chain of several) above

[19] = molecular target: von Hippel-Lindau disease tumor suppressor/Son of sevenless homolog 1 (Homo sapiens, UniProt Q07889+P40337, G12C); assay: PROTAC activity at VHL/SOS1 in human NCI-H358 cells harboring KRAS G12C mutant assessed as induction of SOS1 degradation incubated for 24 hrs by immunoblotting analysis; format: cell-based
Chain of von Hippel-Lindau disease tumor suppressor/Son of sevenless homolog 1 (Homo sapiens, UniProt Q07889+P40337, G12C) (P40337 whole entry, looked up, stated change not applied, one chain of several): as the sequence (P40337 whole entry, one chain of several) above

[20] = molecular target: von Hippel-Lindau disease tumor suppressor/Son of sevenless homolog 1 (Homo sapiens, UniProt Q07889+P40337, G12D); assay: PROTAC activity at VHL/SOS1 in human NCI-H358 cells harboring KRAS […] mutant assessed as induction of SOS1 degradation incubated for 24 hrs by immunoblotting analysis; format: cell-based
Chain of von Hippel-Lindau disease tumor suppressor/Son of sevenless homolog 1 (Homo sapiens, UniProt Q07889+P40337, G12D) (P40337 whole entry, looked up, stated change not applied, one chain of several): as the sequence (P40337 whole entry, one chain of several) above

[21] = molecular target: von Hippel-Lindau disease tumor suppressor/Son of sevenless homolog 1 (Homo sapiens, UniProt Q07889+P40337, G12V); assay: PROTAC activity at VHL/SOS1 in human NCI-H358 cells harboring KRAS G12V mutant assessed as induction of SOS1 degradation incubated for 24 hrs by immunoblotting analysis; format: cell-based
Chain of von Hippel-Lindau disease tumor suppressor/Son of sevenless homolog 1 (Homo sapiens, UniProt Q07889+P40337, G12V) (P40337 whole entry, looked up, stated change not applied, one chain of several): as the sequence (P40337 whole entry, one chain of several) above

[22] = molecular target: von Hippel-Lindau disease tumor suppressor/Son of sevenless homolog 1 (Homo sapiens, UniProt Q07889+P40337, G12R); assay: PROTAC activity at VHL/SOS1 in human NCI-H358 cells harboring KRAS G12R mutant assessed as induction of SOS1 degradation incubated for 24 hrs by immunoblotting analysis; format: cell-based
Chain of von Hippel-Lindau disease tumor suppressor/Son of sevenless homolog 1 (Homo sapiens, UniProt Q07889+P40337, G12R) (P40337 whole entry, looked up, stated change not applied, one chain of several): as the sequence (P40337 whole entry, one chain of several) above

[23] = molecular target: von Hippel-Lindau disease tumor suppressor/Son of sevenless homolog 1 (Homo sapiens, UniProt Q07889+P40337, G13D); assay: PROTAC activity at VHL/SOS1 in human NCI-H358 cells harboring KRAS G13D mutant assessed as induction of SOS1 degradation incubated for 24 hrs by immunoblotting analysis; format: cell-based
Chain of von Hippel-Lindau disease tumor suppressor/Son of sevenless homolog 1 (Homo sapiens, UniProt Q07889+P40337, G13D) (P40337 whole entry, looked up, stated change not applied, one chain of several): as the sequence (P40337 whole entry, one chain of several) above

NCI-H460 = assay: Antiproliferative activity against human NCI-H460 cells harboring KRAS […] mutant assessed as inhibition of cell proliferation incubated for 7 days by CellTiterGlo-3D proliferation assay; format: functional, cell-based; settings: NCI-H460, 168 h
CAL-62 = assay: Antiproliferative activity against human CAL-62 cells harboring KRAS G12R mutant assessed as inhibition of cell proliferation incubated for 7 days by CellTiterGlo-3D proliferation assay; format: functional, cell-based; settings: CAL-62, 168 h
[24] = AUC in mouse at 10 mg/kg, ip by LC-MS analysis; format: ADME, organism-based; settings: in vivo
[25] = Half life in mouse at 10 mg/kg, ip by LC-MS analysis; format: ADME, organism-based; settings: in vivo
NCI-H358 [26] = assay: Antitumor activity against human NCI-H358 cells harboring KRAS […] mutant xenografted in mouse model assessed as tumor growth inhibition at 10 mg/kg, ip administered once daily for 3 weeks relative to control; format: functional; settings: NCI-H358, 504 h, read-out: TGI
NCI-H358 [27] = assay: Antitumor activity against human NCI-H358 cells harboring KRAS G12V mutant xenografted in mouse model assessed as tumor growth inhibition at 10 mg/kg, ip administered once daily for 3 weeks relative to control; format: functional; settings: NCI-H358, 504 h, read-out: TGI

## Cc1nc(N[C@H](C)c2cccc(C(F)F)c2F)c2cc3c(cc2n1)OC[C@H]1CN(C(=O)C2(C#N)CC2)CCN31
[1]
  IC50: 5 nM
MIA PaCa-2 [2]
  IC50: 178 nM
MIA PaCa-2 [3]
  inhibition in vivo at 50 mg/kg: 71%
[4]
  half-life: 1.12 h
[5]
  CLint scaled: 2.23 L/h/kg

## COC(=O)N1CCN2c3cc4c(N[C@H](C)c5cccc(C(F)F)c5F)nnc(C)c4cc3OC[C@H]2C1
[6]
  Ki: 3.9 nM
MIA PaCa-2 [7]
  inhibition in vivo at 20 mg/kg: 87%
MIA PaCa-2 [8]
  inhibition in vivo at 20 mg/kg: 104%
[1]
  IC50: 1.6 nM
[9]
  IC50: 1.1 nM
[10]
  IC50: > 10000 nM
MIA PaCa-2 [11]
  IC50: 43 nM
[12]
  CL/F: 0.102 L/h/kg
[13]
  Vdss: 0.33 L/kg
[14]
  bioavailability: 65.8%
[15]
  half-life: 6.4 h
MIA PaCa-2 [16]
  inhibition in vivo at 20 mg/kg: 42%

## COc1cc2nc(C)nc(N[C@H](C)c3cc(N)cc(C(F)(F)F)c3)c2cc1O[C@H]1CCOC1
K562
  IC50: 37 nM

## COc1cc2nc(C)nc(N[C@H](C)c3cc(N)cc(C(F)(F)F)c3)c2cc1C1CCN(C(=O)CCCCCC(=O)N[C@H](C(=O)N2C[C@H](O)C[C@H]2C(=O)N[C@@H](C)c2ccc(-c3scnc3C)cc2)C(C)(C)C)CC1
[17]
  DC50: 15.7 nM
[18]
  DC50: 8.41 nM
[19]
  DC50: 8.41 nM
[20]
  DC50: 8.41 nM
[21]
  DC50: 8.41 nM
[22]
  DC50: 8.41 nM
[23]
  DC50: 8.41 nM
NCI-H460
  IC50: 6.97 nM
CAL-62
  IC50: 6.97 nM
[24]
  AUC: 14.1 µg·h/mL
[25]
  half-life: 9.69 h
NCI-H358 [26]
  inhibition in vivo at 10 mg/kg: > 65%
NCI-H358 [27]
  inhibition in vivo at 10 mg/kg: > 65%
